# Measurements published in patent US11634666B2, “Methods for spore removal comprising a polysorbate surfactant and cationic antimicrobial mixture” (3M INNOVATIVE PROPERTIES COMPANY, priority 2015, dated 2023).
# System: C. sporogenes spores ATCC 3584
# Assay: In-vitro experiment to evaluate ability of test formulations to remove spores from skin like surfaces (Vitro-Skin, finger bag collection method)
# Conditions: for log reduction of spores (in words): higher concentrations (1%)
# Source text: The in-vitro method was designed to evaluate the removal of microbes from skin using a synthetic skin material from the cosmetic industry, Vitro-skin from IMS inc, Portland METhis method enables rapid screening of formulations for their propensity to promote release of microbes from skin and may be predictive of in-vivo activity.
# The following materials were utilized. C. sporogenes spores ATCC 3584˜1.0×10^8 CFU/ml; Triton-X 100 sampling buffer (pH 7.4) Filter Sterilized: 0.4 g KH2PO4, 10.1 g Na2HPO4, 1 g Triton-X 100, and 1 L dH2O; D/E neutralizing broth; Fingers from disposable polyethylene gloves (VWR 32915-268); Sterile dH2O (WFI quality water); 3M AC Petrifilm; and 5 ml Falcon tubes; 1.5 ml EPI Centrifuge tubes; Petri Dishes; Vitro-Skin IMS Inc.; and double-sided tape.
# The method included the following. Punched-out specified number of Vitro-Skin samples using the ¾″ punch. Attached punch-out Vitro-Skin samples to a Petri-dish or any other sterile flat surface using double-sided tape. Contaminated the Vitro-Skin samples accordingly with 10 μl of spores/spore prep (˜1×10^6 CFU/Sample). Used the pipette tip to spread spores over the surface and used a new pipette tip for each sample. Allowed the samples to dry (˜40 minutes). Placed three samples directly into separate finger bags containing 3 ml of triton-x 100 sampling solution or D/E neutralizing broth if one of the samples going to be tested contains antimicrobials. Used the “Finger bag collection method” below for each of the three recovery controls.
# The Finger bag collection method was carried out as follows. First, a finger bag was cut from disposable gloves.
# For the controls: Filled the finger bag with 3 ml of sampling solution. Placed contaminated Vitro-Skin sample into the finger bag containing sampling solution. Massaged finger bag for 1 minute using thumb and index finger. Removed aliquot of fluid from the finger bag and place into an appropriately labeled 1.5 ml centrifuge tube.
# For the tested samples: Placed contaminated Vitro-Skin sample into a finger bag containing 3 ml of appropriate test solution. Massage in finger bag for 20 seconds. Removed the Vitro-Skin sample from the finger bag and place into a new finger bag containing 3 ml of sampling solution (Triton x-100 glove juice buffer or D/E neutralizing broth). Collected sample by using the finger bag collection method noted above. Repeat “Placed contaminated vitro-skin sample . . . ” to “Collected sample . . . ” for each of the test solutions.
# For best statistical data each test solution was repeated 3 times. Heat treated appropriately labeled 1.5 ml centrifuge tubes containing aliquots of solution for 20 min at 80 C. Serially diluted samples in butterfield's buffer and plate 10^-1 to 10^-4 dilution on AC Petrifilm. Heat shocked, diluted, and plated spore stock day of experiment. Incubated Petrifilm in an anaerobic chamber at 37 C for 20-24 hours. Counted plates and analyzed data.
# [1] = Example 3, added to water, all concentrations
Compound,spore removal (in words) [1],log reduction of spores (in words) (Example 3),other results
benzalkonium chloride,poor spore removal,,
"N=C(NCCCCCCNC(=N)NC(=N)Nc1ccc(Cl)cc1)NC(=N)Nc1ccc(Cl)cc1.O=C(O)[C@H](O)[C@@H](O)[C@H](O)[C@H](O)CO.O=C(O)[C@H](O)[C@@H](O)[C@H](O)[C@H](O)CO [chlorhexidine gluconate, Chlorhexidine gluconate]",poor spore removal,,"spore removal (in words) (Example 6, Tables 6a/6b): poor spore removal"
"CCCCCCCCN=c1ccn(CCCCCCCCCCn2ccc(=NCCCCCCCC)cc2)cc1.Cl.Cl [octinidine, N,N′-(decane-1,10-diyldipyridin-1-yl-4-ylidene)dioctan-1-amine dihydrochloride]",,,"spore removal (in words) (Example 3, higher concentration): unaffected"
"Oc1cc(Cl)ccc1Oc1ccc(Cl)cc1Cl [Triclosan, 5-chloro-2-(2,4-dichlorophenoxy)phenol]",,good log reduction of spores,
"Cc1cc(O)cc(C)c1Cl [PCMX, 4-chloro-3,5-dimethylphenol]",,good log reduction of spores,
